{"source": "patent US11020395B2", "about": "“Cycloalkyl substituted triazole compounds as agonists of the APJ receptor” (AMGEN INC., priority 2016, dated 2021)"}
{"biological_target": "human APJ receptor (Homo sapiens (Human), UniProt P35414)", "sequence (P35414 whole entry)": "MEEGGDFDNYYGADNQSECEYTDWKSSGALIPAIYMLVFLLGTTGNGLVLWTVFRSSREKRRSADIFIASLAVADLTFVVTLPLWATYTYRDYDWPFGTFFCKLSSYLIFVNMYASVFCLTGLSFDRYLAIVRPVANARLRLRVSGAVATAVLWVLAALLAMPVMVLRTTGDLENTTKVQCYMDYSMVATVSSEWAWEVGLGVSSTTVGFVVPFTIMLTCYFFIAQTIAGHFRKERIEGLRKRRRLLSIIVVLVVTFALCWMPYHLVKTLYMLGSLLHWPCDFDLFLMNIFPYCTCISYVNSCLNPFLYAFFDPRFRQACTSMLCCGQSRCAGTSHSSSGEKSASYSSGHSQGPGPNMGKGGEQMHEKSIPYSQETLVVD", "assay": "[35S]GTPγS binding assay on membranes from CHO cells stably expressing human APJ receptor", "assay_type": "biochemical", "conditions": "[35S]GTPγS SPA, read-out: Activity hAPJ SPA EC50 IP", "procedure,_shortened": "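Membranes from CHO cells stably expressing FLAG-tagged human APJ were incubated with [35S]GTPγS in buffer with optimized GDP, MgCl2 and NaCl, 90 min at RT. EC50 values derived by non-linear regression, averaged over several independent experiments.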", "units": {"EC50": "nM"}}
{"compound": "COc1cccc(OC)c1-n1c(NS(=O)(=O)[C@@H](C)[C@H](OC)c2ncc(Cl)cn2)nnc1C1CC2(CCC2)C1", "note": "[Example 236.0, (1R,2S)-1-(5-chloro-2-pyrimidinyl)-N-(4-(2,6-dimethoxyphenyl)-5-(spiro[3.3]heptan-2-yl)-4H-1,2,4-triazol-3-yl)-1-methoxy-2-propanesulfonamide]", "EC50": 0.99}
{"compound": "(1R,2S)-1-(5-chloropyrimidin-2-yl)-N-(4-(2,6-dimethoxyphenyl)-5-((R)-2,2-dimethylcyclopropyl)-4H-1,2,4-triazol-3-yl)-1-methoxypropane-2-sulfonamide or (1R,2S)-1-(5-chloropyrimidin-2-yl)-N-(4-(2,6-dimethoxyphenyl)-5-((S)-2,2-dimethylcyclopropyl)-4H-1,2,4-triazol-3-yl)-1-methoxypropane-2-sulfonamide [Example 22.0]", "EC50": 0.29}
{"compound": "COc1cccc(OC)c1-n1c(NS(=O)(=O)[C@@H](C)[C@H](C)c2ncc(C)cn2)nnc1[C@H]1C[C@H](Cl)C1", "note": "(single isomer, unassigned) [Example 193.0, (2S,3R)-N-(5-((1r,3S)-3-chlorocyclobutyl)-4-(2,6-dimethoxyphenyl)-4H-1,2,4-triazol-3-yl)-3-(5-methylpyrimidin-2-yl)butane-2-sulfonamide or (2S,3R)-N-(5-((1s,3R)-3-chlorocyclobutyl)-4-(2,6-dimethoxyphenyl)-4H-1,2,4-triazol-3-yl)-3-(5-methylpyrimidin-2-yl)butane-2-sulfonamide]", "EC50": 10}
{"compound": "COc1ncnc(OC)c1-n1c(NS(=O)(=O)[C@@H](C)[C@@H](OC(C)C)c2cnc(C)cn2)nnc1C1CCC1", "note": "[Example 86.0, (1S,2S)-N-(5-cyclobutyl-4-(4,6-dimethoxy-5-pyrimidinyl)-4H-1,2,4-triazol-3-yl)-1-(5-methyl-2-pyrazinyl)-1-(2-propanyloxy)-2-propanesulfonamide]", "EC50": 36}
{"compound": "COCC1(n2c(NS(=O)(=O)[C@@H](C)[C@H](OC)c3ncc(Cl)cn3)nnc2C2CCC2)CC1", "note": "[Example 96.0]", "EC50": 30}
{"compound": "COc1cccc(OC)c1-n1c(NS(=O)(=O)[C@@H](C)[C@H](OC)c2ncc(Cl)cn2)nnc1C1CCC1C#N", "note": "(single isomer, unassigned) [Example 170.0, (1R,2S)-1-(5-chloropyrimidin-2-yl)-N-(5-((1R,2R)-2-cyanocyclobutyl)-4-(2,6-dimethoxyphenyl)-4H-1,2,4-triazol-3-yl)-1-methoxypropane-2-sulfonamide or (1R,2S)-1-(5-chloropyrimidin-2-yl)-N-(5-((1R,2R)-2-cyanocyclobutyl)-4-(2,6-dimethoxyphenyl)-4H-1,2,4-triazol-3-yl)-1-methoxypropane-2-sulfonamide]", "EC50": 18}
{"compound": "COc1ncnc(OC)c1-n1c(NS(=O)(=O)[C@@H](C)[C@H](OC)c2ncc(Cl)cn2)nnc1[C@H]1CC[C@@H](F)CC1", "note": "(single isomer, unassigned) [Example 176.0, (1R,2S)-1-(5-chloropyrimidin-2-yl)-N-(4-(4,6-dimethoxypyrimidin-5-yl)-5-((1s,4R)-4-fluorocyclohexyl)-4H-1,2,4-triazol-3-yl)-1-methoxypropane-2-sulfonamide or (1R,2S)-1-(5-chloropyrimidin-2-yl)-N-(4-(4,6-dimethoxypyrimidin-5-yl)-5-((1r,4S)-4-fluorocyclohexyl)-4H-1,2,4-triazol-3-yl)-1-methoxypropane-2-sulfonamide]", "EC50": 17}
{"compound": "COc1ncnc(OC)c1-n1c(NS(=O)(=O)[C@@H](C)[C@@H](OC(C)C)c2ncc(C)cn2)nnc1C1CCC1", "note": "[Example 83.0, (1S,2S)-N-(5-cyclobutyl-4-(4,6-dimethoxy-5-pyrimidinyl)-4H-1,2,4-triazol-3-yl)-1-(5-methyl-2-pyrimidinyl)-1-(2-propanyloxy)-2-propanesulfonamide]", "EC50": 6}
{"compound": "COc1ncnc(OC)c1-n1c(NS(=O)(=O)[C@@H](C)[C@H](OC)c2ncc(Cl)cn2)nnc1[C@H]1CC1(F)F", "note": "(single isomer, unassigned) [Example 100.0, (1R,2S)-1-(5-chloropyrimidin-2-yl)-N-(5-((R)-2,2-difluorocyclopropyl)-4-(4,6-dimethoxypyrimidin-5-yl)-4H-1,2,4-triazol-3-yl)-1-methoxypropane-2-sulfonamide or (1R,2S)-1-(5-chloropyrimidin-2-yl)-N-(5-((S)-2,2-difluorocyclopropyl)-4-(4,6-dimethoxypyrimidin-5-yl)-4H-1,2,4-triazol-3-yl)-1-methoxypropane-2-sulfonamide]", "EC50": 140}
{"compound": "COCC(COC)n1c(NS(=O)(=O)[C@@H](C)[C@H](OC)c2ncc(Cl)cn2)nnc1C1CCC1", "note": "[Example 95.0, (1R,2S)-1-(5-chloropyrimidin-2-yl)-N-(5-cyclobutyl-4-(1,3-dimethoxypropan-2-yl)-4H-1,2,4-triazol-3-yl)-1-methoxypropane-2-sulfonamide]", "EC50": 43}
{"compound": "COc1cccc(OC)c1-n1c(NS(=O)(=O)[C@@H](C)[C@H](OC)c2ncc(Cl)cn2)nnc1[C@H]1CC(=O)C1(C)C", "note": "(single isomer, unassigned) [Example 196.0, (1R,2S)-1-(5-chloropyrimidin-2-yl)-N-(4-(2,6-dimethoxyphenyl)-5-((R)-2,2-dimethyl-3-oxocyclobutyl)-4H-1,2,4-triazol-3-yl)-1-methoxypropane-2-sulfonamide or (1R,2S)-1-(5-chloropyrimidin-2-yl)-N-(4-(2,6-dimethoxyphenyl)-5-((S)-2,2-dimethyl-3-oxocyclobutyl)-4H-1,2,4-triazol-3-yl)-1-methoxypropane-2-sulfonamide]", "EC50": 330}
{"compound": "COc1cccc(OC)c1-n1c(NS(=O)(=O)[C@@H](C)[C@@H](OC(C)C)c2ncc(C)cn2)nnc1[C@@H]1CCC[C@@H]1OC", "note": "(single isomer, unassigned) [Example 235.0]", "EC50": 150}
{"compound": "COc1ncnc(OC)c1-n1c(NS(=O)(=O)[C@@H](C)[C@H](OC)c2ncc(Cl)cn2)nnc1[C@@H]1CC[C@@H]1F", "note": "(single isomer, unassigned) [Example 180.0, (1R,2S)-1-(5-chloropyrimidin-2-yl)-N-(4-(4,6-dimethoxypyrimidin-5-yl)-5-((1S,2S)-2-fluorocyclobutyl)-4H-1,2,4-triazol-3-yl)-1-methoxypropane-2-sulfonamide or (1R,2S)-1-(5-chloropyrimidin-2-yl)-N-(4-(4,6-dimethoxypyrimidin-5-yl)-5-((1R,2R)-2-fluorocyclobutyl)-4H-1,2,4-triazol-3-yl)-1-methoxypropane-2-sulfonamide]", "EC50": 24}
{"compound": "COc1ncnc(OC)c1-n1c(NS(=O)(=O)[C@@H](C)[C@H](OC)c2ncc(Cl)cn2)nnc1C1CC2(CCC2)C1", "note": "[Example 184.0, (1R,2S)-1-(5-chloro-2-pyrimidinyl)-N-(4-(4,6-dimethoxy-5-pyrimidinyl)-5-(spiro[3.3]heptan-2-yl)-4H-1,2,4-triazol-3-yl)-1-methoxy-2-propanesulfonamide]", "EC50": 1.1}
{"compound": "COc1cccc(OC)c1-n1c(NS(=O)(=O)[C@@H](C)[C@H](OC)c2ncc(C)cn2)nnc1[C@H]1C[C@H](Cl)C1", "note": "(single isomer, unassigned) [Example 192.0, (1R,2S)-N-(5-((1r,3S)-3-chlorocyclobutyl)-4-(2,6-dimethoxyphenyl)-4H-1,2,4-triazol-3-yl)-1-methoxy-1-(5-methylpyrimidin-2-yl)propane-2-sulfonamide or (1R,2S)-N-(5-((1s,3R)-3-chlorocyclobutyl)-4-(2,6-dimethoxyphenyl)-4H-1,2,4-triazol-3-yl)-1-methoxy-1-(5-methylpyrimidin-2-yl)propane-2-sulfonamide]", "EC50": 2.9}
{"compound": "COc1ncnc(OC)c1-n1c(NS(=O)(=O)[C@@H](C)[C@H](C)c2ncc(F)cn2)nnc1C1CCC1", "note": "[Example 84.0, (2S,3R)-N-(5-cyclobutyl-4-(4,6-dimethoxy-5-pyrimidinyl)-4H-1,2,4-triazol-3-yl)-3-(5-fluoro-2-pyrimidinyl)-2-butanesulfonamide]", "EC50": 10.8}
{"compound": "COc1ncnc(OC)c1-n1c(NS(=O)(=O)[C@@H](C)[C@H](OC)c2ncc(Cl)cn2)nnc1[C@H]1CC[C@@H](OC)CC1", "note": "(single isomer, unassigned) [Example 174.0, (1R,2S)-1-(5-chloropyrimidin-2-yl)-N-(4-(4,6-dimethoxypyrimidin-5-yl)-5-((1s,4R)-4-methoxycyclohexyl)-4H-1,2,4-triazol-3-yl)-1-methoxypropane-2-sulfonamide or (1R,2S)-1-(5-chloropyrimidin-2-yl)-N-(4-(4,6-dimethoxypyrimidin-5-yl)-5-((1r,4S)-4-methoxycyclohexyl)-4H-1,2,4-triazol-3-yl)-1-methoxypropane-2-sulfonamide]", "EC50": 1200}
{"compound": "COc1cccc(OC)c1-n1c(NS(=O)(=O)[C@@H](C)[C@H](OC)c2ncc(Cl)cn2)nnc1[C@@H]1CC[C@H]1C", "note": "(single isomer, unassigned) [Example 208.0]", "EC50": 2.7}
{"compound": "COc1ncnc(OC)c1-n1c(NS(=O)(=O)[C@@H](C)[C@H](OC)c2ncc(Cl)cn2)nnc1[C@H]1CC[C@H]1C(F)F", "note": "(racemic) [Example 146.0]", "EC50": 26}
{"compound": "COc1ncnc(OC)c1-n1c(NS(=O)(=O)[C@@H](C)[C@H](OC)c2ccc(Cl)cn2)nnc1C1CCC1", "note": "(single isomer, unassigned) [Example 91.0, (1R,2S)-1-(5-chloropyridin-2-yl)-N-(5-cyclobutyl-4-(4,6-dimethoxypyrimidin-5-yl)-4H-1,2,4-triazol-3-yl)-1-methoxypropane-2-sulfonamide or (1S,2R)-1-(5-chloropyridin-2-yl)-N-(5-cyclobutyl-4-(4,6-dimethoxypyrimidin-5-yl)-4H-1,2,4-triazol-3-yl)-1-methoxypropane-2-sulfonamide]", "EC50": 2.9}
{"compound": "COc1cccc(OC)c1-n1c(NS(=O)(=O)[C@@H](C)[C@H](C)c2ncc(C)cn2)nnc1[C@H]1C[C@H](Cl)C1", "note": "(single isomer, unassigned) [Example 194.0, (2S,3R)-N-(5-((1r,3S)-3-chlorocyclobutyl)-4-(2,6-dimethoxyphenyl)-4H-1,2,4-triazol-3-yl)-3-(5-methylpyrimidin-2-yl)butane-2-sulfonamide or (2S,3R)-N-(5-((1s,3R)-3-chlorocyclobutyl)-4-(2,6-dimethoxyphenyl)-4H-1,2,4-triazol-3-yl)-3-(5-methylpyrimidin-2-yl)butane-2-sulfonamide]", "EC50": 2.5}
